Experimental data taken from paper PMC2248166, “Quantitative peptide binding motifs for 19 human and mouse MHC class I molecules derived using positional scanning combinatorial peptide libraries” (Immunome Research, 2008).

Assays:
[1] = molecular target: HLA B*0801 (Homo sapiens, UniProt P01889, A93T/A95T/D138N/E176V/E187T/K202T/Q94N/R180D/S35A/V36M/Y33D/Y91F); assay: biochemical; assay type: binding
[2] = molecular target: H-2 K^k (Mus musculus, UniProt P04223); assay type: binding
[3] = molecular target: HLA B*5801 (Homo sapiens, UniProt P01889, A329T/C349S/D201E/D98Y/E176V/E187L/E204Q/E69T/G107R/I218V/I90N/K202T/L105A/L119I/N104I/N87E/Q89R/Q94S/R106L/R155S/R180L/R86G/S101N/S121R/S35A/S48A/T118I/V127L/V306I/V36M/Y140S/Y91M); assay type: binding
[4] = molecular target: H-2 D^d (Mus musculus, UniProt P01900); assay type: binding
[5] = molecular target: HLA A*3001 (Homo sapiens, UniProt P04439, D140H/D185E/E176W/F33S/G80R/H175R/K168Q/R138E/R41S); assay: biochemical; assay type: binding
[6] = molecular target: HLA B*5802 (Homo sapiens, UniProt P01889, A329T/C349S/D201E/D98Y/E176V/E187L/E204Q/E69T/G107R/I218V/I90N/K202T/L105A/N104I/N87E/Q89R/Q94S/R106L/R155S/R180L/R86G/S101N/S121W/S35A/S48A/V127L/V306I/V36M/Y140S/Y91M); assay type: binding
[7] = molecular target: H-2 D^b (Mus musculus, UniProt P01899); assay type: binding
[8] = molecular target: HLA B*2705 (Homo sapiens, UniProt P01889, D138H/D201E/E176V/E204Q/G107R/H137Y/K202T/N104T/N87E/Q56L/Q94K/R106L/R155S/R180L/S101D/S121N/S48T/Y140D/Y33H/Y91C); assay type: binding; details: positional scanning combinatorial 9-mer library; normalized to 1.0 for the best residue at each position
[9] = molecular target: HLA B*1501 (Homo sapiens, UniProt P01889, A329T/A93T/A95T/C349S/D201E/D98Y/E187L/E204Q/E69M/E70A/K202T/N87E/Q94N/R155S/R180W/S121R/S35A/S48A/V306I/V36M/Y140S/Y91S); assay: biochemical; assay type: binding
[10] = molecular target: HLA A*3201 (Homo sapiens, UniProt P04439, A270S/D101S/D185E/E176V/E277Q/F133L/G103R/G107R/G231S/H175R/I121M/I218V/I322F/K168Q/L105A/L300P/L318F/M331R/P208A/P217A/Q94H/R106L/R138Q/S129P/T104I/T323A/T345S/V100E/V321M/V358M); assay: biochemical; assay type: binding
[11] = molecular target: HLA B*5401 (Homo sapiens, UniProt P01889, A329T/C349S/D138N/D201E/E176V/E187T/E204Q/E69G/I76V/K202T/L119W/R155S/R180L/S121T/S35A/S48A/V127L/V306I/V36M/Y140L); assay type: binding
[12] = molecular target: HLA B*0702 (Homo sapiens, UniProt P01889); assay type: binding; details: positional scanning combinatorial 9-mer library; normalized to 1.0 for the best residue at each position
[13] = molecular target: HLA A*0201 (Homo sapiens, UniProt P04439, D140Y/D185E/D98H/E176V/E277Q/G131W/G231S/I119V/I121R/I166T/I218V/L300P/L318F/N151K/N90K/P208A/P217A/Q86G/Q94H/R138H/R169H/T345S); details: positional scanning combinatorial 9-mer library; normalized to 1.0 for the best residue at each position
[14] = molecular target: HLA B*5301 (Homo sapiens, UniProt P01889, A329T/A93T/A95T/C349S/D201E/D98Y/E176V/E187L/E204Q/E69T/G107R/I218V/K202T/L105A/L119I/N104I/Q94N/R106L/R155S/R180L/S101N/S121R/S35A/S48A/T118I/V127L/V306I/V36M/Y140S/Y91F); assay type: binding
[15] = molecular target: HLA B*5101 (Homo sapiens, UniProt P01889, A329T/A93T/A95T/C349S/D138N/D201E/D98Y/E187L/E204Q/E69T/G107R/I218V/K202T/L105A/L119W/N104I/Q94N/R106L/R155S/R180L/S101N/S121T/S35A/S48A/V306I/V36M/Y195H/Y91F); assay type: binding
[16] = molecular target: HLA A*6802 (Homo sapiens, UniProt P04439, A269V/D140Y/D185E/E176V/E277Q/E87N/F33Y/G231S/I121R/I166T/I218V/L180W/L300P/L318F/N151K/P208A/P217A/Q86R/R138H/R169H/S129P/T345S/V36M); assay type: binding
[17] = molecular target: HLA B*1503 (Homo sapiens, UniProt P01889, A329T/A93T/A95T/C349S/D201E/D98Y/E187L/E204Q/K202T/N87E/Q94N/R155S/R180L/S121R/S35A/V306I/V36M/Y140S/Y91S); assay: biochemical; assay type: binding
[18] = molecular target: HLA B*3501 (Homo sapiens, UniProt P01889, A329T/A93T/A95T/C349S/D201E/D98Y/E176V/E187L/E204Q/E69T/I218V/K202T/L119I/Q94N/R155S/R180L/S121R/S35A/S48A/T118I/V127L/V306I/V36M/Y140S/Y91F); assay type: binding

Sequence of H-2 K^k (P01887 21-119): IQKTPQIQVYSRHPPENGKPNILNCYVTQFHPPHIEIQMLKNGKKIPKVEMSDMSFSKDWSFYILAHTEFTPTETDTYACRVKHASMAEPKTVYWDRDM
Sequence of H-2 K^k (P04223 22-369): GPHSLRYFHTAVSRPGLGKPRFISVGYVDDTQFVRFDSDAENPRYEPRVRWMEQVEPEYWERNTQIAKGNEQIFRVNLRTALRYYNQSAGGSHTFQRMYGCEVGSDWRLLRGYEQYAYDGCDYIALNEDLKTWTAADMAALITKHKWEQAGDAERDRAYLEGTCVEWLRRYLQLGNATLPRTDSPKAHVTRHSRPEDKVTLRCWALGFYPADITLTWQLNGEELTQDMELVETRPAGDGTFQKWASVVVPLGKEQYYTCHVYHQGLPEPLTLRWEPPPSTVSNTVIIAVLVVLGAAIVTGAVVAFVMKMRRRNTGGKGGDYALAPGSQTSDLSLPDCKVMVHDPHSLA
Sequence of H-2 D^b (P01887 21-119): as the sequence (P01887 21-119) above
Sequence of H-2 D^b (P01899 25-362): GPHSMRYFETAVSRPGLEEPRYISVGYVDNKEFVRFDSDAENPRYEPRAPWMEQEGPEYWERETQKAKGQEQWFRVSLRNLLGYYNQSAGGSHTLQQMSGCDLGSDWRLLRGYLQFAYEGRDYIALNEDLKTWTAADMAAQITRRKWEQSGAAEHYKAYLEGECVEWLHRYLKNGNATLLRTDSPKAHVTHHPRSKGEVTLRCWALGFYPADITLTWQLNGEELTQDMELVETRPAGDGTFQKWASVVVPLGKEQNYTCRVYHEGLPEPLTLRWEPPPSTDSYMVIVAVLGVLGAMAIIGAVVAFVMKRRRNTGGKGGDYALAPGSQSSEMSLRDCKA
Sequence of H-2 D^d (P01900 whole entry, looked up): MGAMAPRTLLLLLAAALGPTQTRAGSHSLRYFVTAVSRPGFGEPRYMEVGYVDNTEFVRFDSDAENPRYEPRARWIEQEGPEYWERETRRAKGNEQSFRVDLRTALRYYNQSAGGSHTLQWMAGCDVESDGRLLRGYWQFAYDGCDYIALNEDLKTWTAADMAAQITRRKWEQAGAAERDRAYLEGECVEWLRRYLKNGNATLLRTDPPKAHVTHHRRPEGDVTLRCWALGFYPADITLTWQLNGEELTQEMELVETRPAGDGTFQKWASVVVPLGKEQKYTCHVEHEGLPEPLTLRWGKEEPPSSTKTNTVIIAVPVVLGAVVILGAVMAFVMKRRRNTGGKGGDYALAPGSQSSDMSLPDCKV

Sequence | Normalized average relative binding affinity (ARB), HLA B*0801 [1] | Normalized average relative binding affinity (ARB), H-2 Kk [2] | Normalized average relative binding affinity (ARB), HLA B*5801 [3] | Normalized average relative binding affinity (ARB), H-2 Dd [4] | Normalized average relative binding affinity (ARB), HLA A*3001 [5] | Normalized average relative binding affinity (ARB), HLA B*5802 [6] | Normalized average relative binding affinity (ARB), H-2 Db [7] | Normalized average relative binding affinity (ARB), HLA B*2705 [8] | Normalized average relative binding affinity (ARB), HLA B*1501 [9] | Normalized average relative binding affinity (ARB), HLA A*3201 [10] | Normalized average relative binding affinity (ARB), HLA B*5401 [11] | Normalized average relative binding affinity (ARB), HLA B*0702 [12] | Normalized average relative binding affinity (ARB), HLA A*0201 [13] | Normalized average relative binding affinity (ARB), HLA B*5301 [14] | Normalized average relative binding affinity (ARB), HLA B*5101 [15] | Normalized average relative binding affinity (ARB), HLA A*6802 [16] | Normalized average relative binding affinity (ARB), HLA B*1503 [17] | Normalized average relative binding affinity (ARB), HLA B*3501 [18]
WXXXXXXXX [3064.0019] | 0.20 | 0.80 | 0.29 | 1.0 | 0.020 | 0.11 | 0.16 | 0.41 | 0.44 | 0.059 | 0.14 | 0.25 | 0.057 | 0.17 | 0.11 | 0.19 | 0.27 | 0.23
XVXXXXXXX [3064.0038] | 0.17 | 0.0062 | 0.14 | 0.016 | 1.0 | 0.12 | 0.20 | 0.0016 | 0.39 | 0.23 | 0.024 | 0.086 | 0.098 | 0.10 | 0.10 | 1.0 | 0.017 | 0.062
NXXXXXXXX [3064.0012] | 0.43 | 0.80 | 0.056 | 0.19 | 0.065 | 0.063 | 0.31 | 0.095 | 0.22 | 0.13 | 0.12 | 0.15 | 0.067 | 0.027 | 0.19 | 0.24 | 0.14 | 0.29
XCXXXXXXX [3064.0022] | 0.028 | 0.010 | 0.013 | 0.013 | 0.15 | 0.051 | 0.22 | 0.0016 | 0.027 | 0.028 | 0.0051 | 0.0028 | 0.0016 | 0.019 | 0.079 | 0.0076 | 0.0028 | 0.067
